Measurements as given in patent publication US5952298A, “Cryptophycins” (priority 1995, dated 1999).
Read-outs that look alike come from different tables or passages of the source.

Legend:
[1] = tested on: KB (human nasopharyngeal carcinoma); test: Cytotoxicity against KB cell line; assay type: cell-based
[2] = tested on: LoVo (human colon carcinoma); test: Cytotoxicity against LoVo cell line; assay type: cell-based
[3] = tested on: SKOV3 (human ovarian carcinoma); test: Cytotoxicity against SKOV3 cell line (Table 2); assay type: cell-based
[4] = tested on: pancreatic ductal adenocarcinoma #03 (Panc 03, P03); details: SC P03
[5] = tested on: murine leukemia (L1210 or P388), murine solid tumor, human solid tumor and low malignancy fibroblast (LML) cells
[6] = tested on: murine and human tumors implanted in mice
Procedure: Gross log kill is defmed as T-C/3.2 Td where T is the median time in days for the tumors of the treated group to reach 750 mg, C is the median time in days for the tumors of the control group to reach 750 mg, and Td is the tumor volume doubling time. […] An activity rating of +++ to ++++, which is indicative of clinical activity, is needed to effect partial or complete regression of 100-300 mg size masses of most transplanted solid tumors of mice.

[7] = tested on: colon adenocarcinoma #51 (Colon 51); test: In vivo activity, SC Colon 51 tumor; details: Exp 1900, 9 IV inj., 67.5 mg/kg TD
[8] = tested on: colon adenocarcinoma #38 (Colon 38, C38); details: for % Body Wt. Loss at Nadir / Cures / T/C: SC C38; for Log Kill: mouse, in vivo
[9] = tested on: Mam 16/C (taxol-sensitive mammary #16/C); test: In vivo activity, SC Mam 16/C tumor; details: Exp 1885, 7 IV inj., 21.3 mg/kg TD
[10] = Exp 1813, 9 IV inj., 27 mg/kg TD
[11] = Exp 1843, 4 IV inj., 28/5 mg/kg TD
[12] = Exp 1825, 11 IV inj., 106 mg/kg TD
[13] = Exp 1769, 15 IV inj., 45 mg/kg TD
[14] = Exp 1887B, 6 IV inj., 30 mg/kg TD
[15] = Exp 1878, 9 IV inj., 82 mg/kg TD
[16] = Exp 1843, 7 IV inj., 23 mg/kg TD

COc1ccc(C[C@H]2NC(=O)/C=C/C[C@@H](C[C@H]3O[C@@H]3c3ccccc3)OC(=O)[C@H](CC(C)C)OC(=O)[C@H](C)CNC2=O)cc1Cl [Cryptophycin 40]
KB IC50 ([1]; Table 2): 9.0 ng/mL
LoVo IC50 ([2]; Table 2): 1.0 ng/mL

COc1ccc(C[C@H]2NC(=O)/C=C/C[C@@H](C/C=C/c3ccccc3)OC(=O)[C@H](CC(C)C)OC(=O)[C@H](C)CNC2=O)cc1Cl [Cryptophycin 28]
KB IC50 ([1]; Table 2): 1.5 ng/mL
LoVo IC50 ([2]; Table 2): 0.75 ng/mL
SKOV3 IC50 [3]: 6.1 ng/mL

CC(C)C[C@@H]1OC(=O)[C@H](C)CNC(=O)[C@@H](Cc2ccc(O)c(Cl)c2)NC(=O)/C=C/C[C@@H]([C@H](C)/C=C/c2ccccc2)OC1=O [Cryptophycin 17]
KB IC50 ([1]; Table 2): 4.7 ng/mL
LoVo IC50 ([2]; Table 2): 5.9 ng/mL
SKOV3 IC50 [3]: 11 ng/mL

COc1ccc(C[C@H]2NC(=O)C[C@@H](C[C@H](O)[C@H](C)/C=C/c3ccccc3)OC(=O)[C@H](CC(C)C)OC(=O)[C@H](C)CNC2=O)cc1Cl [Cryptophycin 26]
KB IC50 ([1]; Table 2): 19 ng/mL
LoVo IC50 ([2]; Table 2): 9.8 ng/mL
SKOV3 IC50 [3]: 95 ng/mL

COc1ccc(C[C@H]2NC(=O)/C=C/C[C@@H]([C@H](C)[C@H]3O[C@@H]3c3ccccc3)OC(=O)[C@H](CC(C)C)OC(=O)CCNC2=O)cc1Cl [Cryptophycin 21]
% Body Wt. Loss at Nadir [4, 10]: -11%
Cures [4, 10]: 0/5
Log Kill [4, 10]: None
T/C [4, 10]: 61%
dead (animals) [4, 10]: 1/5
LoVo IC50 ([2]; Table 2): 0.0003 ng/mL
SKOV3 IC50 [3]: 0.029 ng/mL

COc1ccc(C[C@H]2NC(=O)/C=C/C[C@@H]([C@H](C)/C=C/c3ccccc3)OC(=O)[C@H](CC(C)C)OC(=O)[C@H](C)CNC2=O)cc1Cl [Cryptophycin 3]
Differential in Zone Units, Corbett Assay ([5]; 25 μg/disk): > 400 zone units
Type of Cytotoxicity, Corbett Assay ([5]; 25 μg/disk): E/T
% Body Wt. Loss at Nadir [4, 11]: -9%
Cures [4, 11]: 0/5
Log Kill [4, 11]: < 1
T/C [4, 11]: 54%
KB IC50 ([1]; Table 1): 0.3 ng/mL
LoVo IC50 ([2]; Table 1): 0.5 ng/mL
LoVo IC50 ([2]; Table 2): 0.6 ng/mL
SKOV3 IC50 [3]: 2.8 ng/mL

COc1ccc(C[C@@H](NC(=O)/C=C/C[C@H](O)[C@H](C)/C=C/c2ccccc2)C(=O)NC[C@@H](C)C(=O)O)cc1Cl [Cryptophycin 14]
KB IC50 ([1]; Table 1): 1.8 ng/mL

COC(=O)[C@H](C)CNC(=O)[C@@H](Cc1ccc(OC)c(Cl)c1)NC(=O)/C=C/C[C@H](OC(=O)[C@@H](O)CC(C)C)[C@H](C)[C@H]1O[C@@H]1c1ccccc1 [Cryptophycin 5]
KB IC50 ([1]; Table 1): 0.02 ng/mL
KB IC50 ([1]; Table 2): 12 ng/mL
SKOV3 IC50 [3]: 7.4 ng/mL

COc1ccc(C[C@H]2NC(=O)C[C@H](O)C[C@@H]([C@H](C)/C=C/c3ccccc3)OC(=O)[C@H](CC(C)C)OC(=O)[C@H](C)CNC2=O)cc1Cl [Cryptophycin 30]
KB IC50 ([1]; Table 2): 11 ng/mL

COc1ccc(C[C@@H](NC(=O)/C=C/C[C@@H]2O[C@@H](c3ccccc3)[C@H](O)[C@H]2C)C(=O)NC[C@@H](C)C(=O)O)cc1Cl [Cryptophycin 12]
KB IC50 ([1]; Table 1): ≥ 100 ng/mL
KB IC50 ([1]; Table 2): 18 ng/mL
LoVo IC50 ([2]; Table 1): ≥ 100 ng/mL

COc1ccc(C[C@H]2NC(=O)/C=C/C[C@@H]([C@H](C)[C@@H](O)[C@@H](Cl)c3ccccc3)OC(=O)[C@H](CC(C)C)OC(=O)[C@H](C)CNC2=O)cc1Cl [Cryptophycin 8]
Differential in Zone Units, Corbett Assay ([5]; 30 μg/disk): > 500 zone units
Type of Cytotoxicity, Corbett Assay ([5]; 30 μg/disk): E/T
% Body Wt. Loss at Nadir [4, 12]: -6%
Cures [4, 12]: 0/5
Log Kill [4, 12]: 4.6
T/C [4, 12]: 4%
KB IC50 ([1]; Table 1): 0.0002 ng/mL
KB IC50 ([1]; Table 2): 0.01 ng/mL
cures (in words) [6]: some cures
gross log kill activity rating [6]: +++ to ++++
in vivo activity (in words) [6]: active against a broad spectrum of tumors implanted in mice
cause of lethal toxicity observed during testing ([6]; mice): leucopenia
tumor burden T/C (mean tumor burden in treated animals/mean tumor burden untreated animals) ([6]; text summary over the tumors named in the sentence): < 10%
% Body Wt. Loss at Nadir [7]: -1%
Cures [7]: 0/5
Log Kill [7]: 1.8
T/C [7]: 7%
LoVo IC50 ([2]; Table 1): 0.01 ng/mL
LoVo IC50 ([2]; Table 2): 0.0022 ng/mL
% Body Wt. Loss at Nadir [8, 13]: -2%
Cures [8, 13]: 0/5
T/C [8, 13]: > 100%
% Body Wt. Loss at Nadir [8, 14]: -2%
Cures [8, 14]: 1/5
T/C [8, 14]: 0%
Log Kill ([8]; 30 mg/kg): 2.8
Log Kill ([8]; 45 mg/kg): None
% Body Wt. Loss at Nadir [9]: -4.5%
Cures [9]: 0/5
Log Kill [9]: 2.5
T/C [9]: 6%
SKOV3 IC50 [3]: 0.15 ng/mL

COc1ccc(C[C@H]2NC(=O)/C=C/C[C@@H]([C@H](C)[C@@H](O)[C@@H](OC)c3ccccc3)OC(=O)[C@H](CC(C)C)OC(=O)[C@H](C)CNC2=O)cc1Cl [Cryptophycin 9]
KB IC50 ([1]; Table 1): 15 ng/mL

CC(C)C[C@@H]1OC(=O)[C@H](C)CNC(=O)[C@@H](Cc2ccc(O)c(Cl)c2)NC(=O)/C=C/C[C@@H]([C@H](C)[C@H]2O[C@@H]2c2ccccc2)OC1=O [Cryptophycin 16]
% Body Wt. Loss at Nadir [4, 15]: -1%
Cures [4, 15]: 0/5
Log Kill [4, 15]: None
T/C [4, 15]: 89%
KB IC50 ([1]; Table 2): 0.08 ng/mL
SKOV3 IC50 [3]: 0.64 ng/mL

COc1ccc(C[C@H]2NC(=O)/C=C/C[C@@H]([C@H](C)/C=C/c3ccccc3)OC(=O)[C@H](CC(C)C)OC(=O)[C@H](C)CNC2=O)cc1 [Cryptophycin 4]
Differential in Zone Units, Corbett Assay ([5]; 20 μg/disk): > 400 zone units
Type of Cytotoxicity, Corbett Assay ([5]; 20 μg/disk): E/T
KB IC50 ([1]; Table 1): 1.3 ng/mL
LoVo IC50 ([2]; Table 2): 2.5 ng/mL
SKOV3 IC50 [3]: 21 ng/mL

CC[C@H](C)[C@@H]1OC(=O)[C@H](C)CNC(=O)[C@@H](Cc2ccc(OC)c(Cl)c2)NC(=O)/C=C/C[C@@H]([C@H](C)[C@H]2O[C@@H]2c2ccccc2)OC1=O [Cryptophycin 54]
KB IC50 ([1]; Table 2): 0.80 ng/mL
LoVo IC50 ([2]; Table 2): 2.2 ng/mL
SKOV3 IC50 [3]: 2.2 ng/mL

COc1ccc(C[C@@H](NC(=O)/C=C/C[C@@H]2O[C@@H](c3ccccc3)[C@H](O)[C@H]2C)C(=O)O)cc1Cl [Cryptophycin 7]
KB IC50 ([1]; Table 1): ≥ 750 ng/mL
LoVo IC50 ([2]; Table 1): ≥ 480 ng/mL

COc1ccc(C[C@H]2NC(=O)/C=C/C[C@@H]([C@H](C)/C=C/c3ccccc3)OC(=O)[C@H](C(C)C)OC(=O)[C@H](C)CNC2=O)cc1Cl [Cryptophycin 19]
KB IC50 ([1]; Table 2): 9.8 ng/mL
SKOV3 IC50 [3]: 41 ng/mL

COc1ccc(C[C@H]2NC(=O)/C=C/C[C@@H]([C@H](C)[C@H]3O[C@@H]3c3ccccc3)OC(=O)[C@H](CC(C)C)OC(=O)CCNC2=O)cc1 [Cryptophycin 24]
KB IC50 ([1]; Table 2): 0.12 ng/mL
LoVo IC50 ([2]; Table 2): 0.095 ng/mL
SKOV3 IC50 [3]: 0.3 ng/mL

CC[C@H](C)[C@@H]1OC(=O)[C@H](C)CNC(=O)[C@@H](Cc2ccc(OC)c(Cl)c2)NC(=O)/C=C/C[C@@H]([C@H](C)/C=C/c2ccccc2)OC1=O [Cryptophycin 18]
LoVo IC50 ([2]; Table 2): 4.5 ng/mL
SKOV3 IC50 [3]: 23 ng/mL

COc1ccc(CC2NC(=O)CCCC(C(C)C3OC3c3ccccc3)OC(=O)C(CC(C)C)OC(=O)C(C)CNC2=O)cc1Cl (stereo not shown) [Cryptophycin 35]
% Body Wt. Loss at Nadir [4, 16]: -2%
Cures [4, 16]: 0/5
Log Kill [4, 16]: 1.3
T/C [4, 16]: 11%
in vivo activity (in words) [6]: Good in vivo activity

COc1c(Cl)cc(C[C@H]2NC(=O)/C=C/C[C@@H]([C@H](C)[C@H]3O[C@@H]3c3ccccc3)OC(=O)[C@H](CC(C)C)OC(=O)[C@H](C)CNC2=O)cc1Cl [Cryptophycin 31]
KB IC50 ([1]; Table 2): 0.53 ng/mL
LoVo IC50 ([2]; Table 2): 0.062 ng/mL
SKOV3 IC50 [3]: 1.9 ng/mL

COc1ccc(C[C@H]2NC(=O)/C=C/C[C@@H]([C@H](C)/C=C/c3ccccc3)OC(=O)[C@H](CC(C)C)OC(=O)CCNC2=O)cc1Cl [Cryptophycin 29]
LoVo IC50 ([2]; Table 2): 0.49 ng/mL
SKOV3 IC50 [3]: 3.4 ng/mL

COc1ccc(C[C@H]2NC(=O)/C=C/C[C@@H]([C@H](C)[C@H]3O[C@@H]3c3ccccc3)OC(=O)[C@H](CC(C)C)OC(=O)[C@H](C)CNC2=O)cc1 [Cryptophycin 2]
Differential in Zone Units, Corbett Assay ([5]; 25 μg/disk): > 400 zone units
Type of Cytotoxicity, Corbett Assay ([5]; 25 μg/disk): E/T
LoVo IC50 ([2]; Table 1): 0.0002 ng/mL
LoVo IC50 ([2]; Table 2): 0.021 ng/mL
SKOV3 IC50 [3]: 0.18 ng/mL

COc1ccc(C[C@H]2NC(=O)CCC[C@@H]([C@H](C)[C@H]3O[C@@H]3c3ccccc3)OC(=O)[C@H](CC(C)C)OC(=O)[C@H](C)CNC2=O)cc1Cl [Cryptophycin 35]
KB IC50 ([1]; Table 2): 0.055 ng/mL
SKOV3 IC50 [3]: 0.092 ng/mL
